Results taken from paper PMC7057854, “Adapting free energy perturbation simulations for large macrocyclic ligands: how to dissect contributions from direct binding and free ligand flexibility” (Chemical Science, 2020).

Key:
[1] = HPLC-based LogD determination; conditions: for tR (retention time used for LogD determination): HPLC-UV 254 nm, Nucleodur C18 Gravity, 50 mM ammonium acetate pH 7.4 (A) / acetonitrile (B), 0 min 0 % B to 20 min 95 % B, 1 mL/min, acetylated peptides, triplicates
[2] = design: method as in earlier work; conditions: octanol-water partitioning, received from literature; ref 3–5 (supplement); cited from earlier work
Source text: page 19: Table S8: Reference compounds used to establish a calibration curve for LogD determination.

[3] = target: T1, 14-3-3ζ full length His-tag (Homo sapiens, UniProt P63104); test: biochemical; type: binding; conditions: for BEI (binding efficiency index): BEI = pKd/(MW × 10^–3), pKd from direct FP of FITC-labelled peptides
T1 sequence (P63104 1-245): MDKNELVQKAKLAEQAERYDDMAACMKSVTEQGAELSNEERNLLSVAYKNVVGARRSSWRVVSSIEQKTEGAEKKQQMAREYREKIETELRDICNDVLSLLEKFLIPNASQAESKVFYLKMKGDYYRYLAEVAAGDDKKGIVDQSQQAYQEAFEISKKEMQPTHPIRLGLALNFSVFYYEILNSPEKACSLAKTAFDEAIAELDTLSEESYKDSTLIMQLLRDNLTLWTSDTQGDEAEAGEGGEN

[4] = target: T1, 14-3-3ζ full length His-tag; test: biochemical

| SMILES | tR (retention time used for LogD determination) [1] [min] | Kd [3] [nM] | chromatographic logD ([1]; pH 7.4) | other results |
| --- | --- | --- | --- | --- |
| COc1ccc([C@@H]2Sc3ccccc3N(CCN(C)C)C(=O)[C@@H]2OC(C)=O)cc1 [Diltiazem, reference compound] | 15.31±0.002 |  |  | LogD of reference compound [2]: 2.70 |
| CC(CCc1ccccc1)NCC(O)c1ccc(O)c(C(N)=O)c1 (stereo not drawn) [Labetolol, reference compound] | 12.14±0.010 |  |  |  |
| COCCc1ccc(OCC(O)CNC(C)C)cc1 (stereo not drawn) [Metoprolol, reference compound] | 10.21±0.024 |  |  | LogD of reference compound [2]: -0.06 |
| CC(C)C[C@H](NC(=O)[C@H](CC(=O)O)NC(=O)[C@H](CC(C)C)NC(=O)[C@]1(C)CCCCCCCC[C@@](C)(NC(=O)CNC(=O)[C@H](CCC(N)=O)NC(=O)COCCOCCNC(=S)Nc2ccc3c(c2)C(=O)OC32c3ccc(O)cc3Oc3cc(O)ccc32)C(=O)N[C@@H](CC(C)C)C(=O)N[C@@H](CC(=O)O)C(=O)N1)C(=O)N[C@@H](C)C(=O)N[C@@H](C)C(N)=O [S430A] |  | 72 ± 5 |  |  |
| CC(=O)N[C@@H](CCC(N)=O)C(=O)NCC(=O)N[C@]1(C)CCCCCCCC[C@@](C)(C(=O)N[C@@H](CC(C)C)C(=O)N[C@@H](CC(=O)O)C(=O)N[C@@H](CC(C)C)C(=O)N[C@@H](C)C(=O)N[C@@H](CO)C(N)=O)NC(=O)[C@H](CC(=O)O)NC(=O)[C@H](CC(C)C)NC1=O [compound 1] | 12.58±0.197 |  | 1.15 ± 0.068 |  |
| CC(C)C[C@H](NC(=O)[C@H](CC(=O)O)NC(=O)[C@H](CC(C)C)NC(=O)[C@]1(C)CCCCCCCC[C@@](C)(NC(=O)CNC(=O)[C@H](CCC(N)=O)NC(=O)COCCOCCNC(=S)Nc2ccc3c(c2)C(=O)OC32c3ccc(O)cc3Oc3cc(O)ccc32)C(=O)N[C@@H](CC(C)C)C(=O)N[C@@H](CC(=O)O)C(=O)N1)C(=O)N[C@@H](C)C(N)=O [compound 2] |  | 355 |  | BEI (binding efficiency index) [3]: 4.07 |
| CC(C)C[C@H](NC(=O)[C@H](CC(=O)O)NC(=O)[C@H](CC(C)C)NC(=O)[C@]1(C)CCCCCCCC[C@@](C)(NC(=O)CNC(=O)[C@H](CCC(N)=O)NC(=O)COCCOCCNC(=S)Nc2ccc3c(c2)C(=O)OC32c3ccc(O)cc3Oc3cc(O)ccc32)C(=O)N[C@@H](CC(C)C)C(=O)N[C@@H](CC(=O)O)C(=O)N1)C(N)=O [compound 3] |  | 2880 |  | BEI (binding efficiency index) [3]: 3.66 |
| CC(C)C[C@@H]1NC(=O)[C@](C)(NC(=O)CNC(=O)[C@H](CCC(N)=O)NC(=O)COCCOCCNC(=S)Nc2ccc3c(c2)C(=O)OC32c3ccc(O)cc3Oc3cc(O)ccc32)CCCCCCCC[C@@](C)(C(=O)N[C@@H](CC(C)C)C(=O)N[C@@H](CC(=O)O)C(N)=O)NC(=O)[C@H](CC(=O)O)NC1=O [compound 4] |  | > 100000 |  | BEI (binding efficiency index) [3]: 2.86 |
| CC(=O)NCC(=O)N[C@]1(C)CCCCCCCC[C@@](C)(C(=O)N[C@@H](CC(C)C)C(=O)N[C@@H](CC(=O)O)C(=O)N[C@@H](CC(C)C)C(N)=O)NC(=O)[C@H](CC(=O)O)NC(=O)[C@H](CC(C)C)NC1=O [compound 5] | 12.75±0.003 |  | 1.26 | Δlog D relative to 7 (H/H) ([1]; pH 7.4): 0.63 |
| CC(C)C[C@H](NC(=O)[C@H](CC(=O)O)NC(=O)[C@H](CC(C)C)NC(=O)[C@]1(C)CCCCCCCC[C@@](C)(NC(=O)COCCOCCNC(=S)Nc2ccc3c(c2)C(=O)OC32c3ccc(O)cc3Oc3cc(O)ccc32)C(=O)N[C@@H](CC(C)C)C(=O)N[C@@H](CC(=O)O)C(=O)N1)C(N)=O [compound 6] |  | 12300 |  | BEI (binding efficiency index) [3]: 3.70 |
| CC(=O)NCC(=O)N[C@@H]1CCCCCCCC[C@@H](C(=O)N[C@@H](CC(C)C)C(=O)N[C@@H](CC(=O)O)C(=O)N[C@@H](CC(C)C)C(N)=O)NC(=O)[C@H](CC(=O)O)NC(=O)[C@H](CC(C)C)NC1=O [compound 7] | 11.70±0.007 |  | 0.63 ± 0.019 |  |
| CC(=O)NCC(=O)N[C@@H]1CCCCCCCC[C@@](C)(C(=O)N[C@@H](CC(C)C)C(=O)N[C@@H](CC(=O)O)C(=O)N[C@@H](CC(C)C)C(N)=O)NC(=O)[C@H](CC(=O)O)NC(=O)[C@H](CC(C)C)NC1=O [compound 8] | 12.37±0.003 |  |  | LogD ([1]; pH 7.4): 1.03±0.031 |
| CC(=O)NCC(=O)N[C@]1(C)CCCCCCCC[C@@H](C(=O)N[C@@H](CC(C)C)C(=O)N[C@@H](CC(=O)O)C(=O)N[C@@H](CC(C)C)C(N)=O)NC(=O)[C@H](CC(=O)O)NC(=O)[C@H](CC(C)C)NC1=O [compound 9] | 12.35±0.003 |  | 1.01 ± 0.031 | Ki [4]: > 31600 nM |
| CC[C@@]1(C(=O)N[C@@H](CC(C)C)C(=O)N[C@@H](CC(=O)O)C(=O)N[C@@H](CC(C)C)C(N)=O)CCCCCCCC[C@@](C)(NC(=O)CNC(C)=O)C(=O)N[C@@H](CC(C)C)C(=O)N[C@@H](CC(=O)O)C(=O)N1 [compound 10] | 12.78±0.009 |  | 1.28 ± 0.04 |  |
| CC[C@@]1(NC(=O)CNC(C)=O)CCCCCCCC[C@@](C)(C(=O)N[C@@H](CC(C)C)C(=O)N[C@@H](CC(=O)O)C(=O)N[C@@H](CC(C)C)C(N)=O)NC(=O)[C@H](CC(=O)O)NC(=O)[C@H](CC(C)C)NC1=O [compound 11] | 12.88±0.003 |  | 1.33 ± 0.041 |  |
| CC[C@@]1(NC(=O)CNC(C)=O)CCCCCCCC[C@@](CC)(C(=O)N[C@@H](CC(C)C)C(=O)N[C@@H](CC(=O)O)C(=O)N[C@@H](CC(C)C)C(N)=O)NC(=O)[C@H](CC(=O)O)NC(=O)[C@H](CC(C)C)NC1=O [compound 12] | 12.92±0.001 |  | 1.35 | Δlog D relative to 5 (Me/Me) ([1]; pH 7.4): 0.09 |
